system: Dermatophagoides pteronyssinus; assay: Efficacy against mites (ticking in plastic dish, rated under a stereomicroscope); format: in vivo; conditions: 0.4 ml applied to ticking; mixed population; rated after 2 hours, 1, 3 and 7 days; sum of three experimental units after end of experiment; control isopropanol/water = 9.0
From the text: A mixed population of the species Dermatophagoides pteronyssinus is used.
The upper rim of a plastic dish (Ø 7 cm, height 3 cm) is provided with glue and then covered with a piece of ticking of the same diameter. A spatula-tip full from a culture dish containing mites and feed (ground Tetramin) is placed on the ticking.
The dish is then placed on an inverted Petri dish in a plastic container (33×22 cm, height 6.5 cm), containing saturated sodium chloride solution, and the container is closed with a lid.
The next day, 0.4 ml of the composition of the invention is applied to the material.
The set-up is illuminated by daylight, the temperature is 24-26° C., and the relative atmospheric humidity within the closed plastic container is approximately 75%.
After 2 hours, 1, 3, and 7 days the state of the mites in comparison with a control treated only with isopropanol/water (1:1) is rated under a stereomicroscope (3=numerous mites, 0=no mites). Direct counting is impossible since dead animals are difficult to see.
If required (control, ineffective products), more feed is added.
Three experimental units are set up for each experiment, and after the end of the experiment the sum of the scores is recorded.

SMILES | sum of the scores of the state of the mites (0 = no mites, 9 = numerous mites)
Oc1ccccc1-c1ccccc1 [0.1% o-Phenylphenol, o-Phenylphenol] | 9.0
CCCCCCCCCCCCOS(=O)(=O)[O-].[Na+] [1.0% Na lauryl sulphate, Na lauryl sulphate] | 9.0
O=C(OCc1ccccc1)c1ccccc1 [5.0% Benzyl benzoate, Benzyl benzoate] | 9.0
CC(O)CO (stereo not shown) [5.0% Propylene glycol, Propylene glycol] | 9.0
